Literature values in US20200093858A1, “VAGINAL BIOADHESIVE BORIC ACID FORMULATION AND ITS PREPARATION METHOD” (Halo Science LLC, priority 2015, published 2020).
Where two headings read alike, the source gives them in different places.

Columns and labels:
C. albicans = details: 2×10^6 per mL of C. albicans, in vitro
common fungi or bacteria = details: in urine
[1] = 600 mg per day, therapeutic course of two weeks
T. glabrata = details: refractory T. glabrata vaginitis
[2] = tested on: recurrent bacterial vaginosis; details: for cure rate / cumulative cure rate: boric acid in addition to nitroimidazole

OB(O)O [boric acid]
boric acid concentration that inhibited proliferation of C. albicans (C. albicans): 4%
cure rate (vulvovaginal candidiasis; boric acid treatment of vulvovaginal candidiasis): > 90%
efficacy compared with conazoles (vulvovaginal candidiasis; treatment for 14 days): equivalent to conazoles
boric acid concentration that could suppress almost all common fungi or bacteria (common fungi or bacteria): 10 to 20 mg/mL
adverse reactions [1]: did not cause adverse reactions
Clinical efficacy (T. glabrata): ≤ 81%
mycological eradication rate (T. glabrata): ≤ 77%
adverse reactions ([2]; in vivo): No adverse reactions were observed
cure rate ([2]; week 7): 88%
cure rate ([2]; week 12): 92%
cumulative cure rate ([2]; week 16): 78%
cumulative cure rate ([2]; week 28): 65%
